The values below come from EP2527319A1, “Crystalline forms of pregabalin and co-formers in the treatment of pain” (Laboratorios del. Dr. Esteve, S.A., priority 2011, dated 2012).

In brackets after ≈: the same amount, converted by molar mass. Where two headings read alike, the source gives them in different places.

For data set [1] the following is noted: for Hygroscopicity: storage at ambient and humidity (40 C, 85-95% RH) conditions; for Hygroscopicity (85-95%): summary table, 85-95% RH, result in words.
For data set [2] the following is noted: for hygroscopicity (classification from DVS): 15 to 95% RH, result in words; for hygroscopicity (classification from DVS) / Δ %weight 24 h: DVS; for Δ %weight 24 h: humidity increased stepwise from 15 to 95% RH at constant temperature; for Hygroscopicity (85-95%): summary table, same figures as Δ %weight 24 h of Table 1. Here is the method: The objective was to measure the hygroscopicity of some crystalline forms of the present invention. The percentage increase of mass was calculated in order to evaluate the adsorption of water in the samples.
Dynamic Vapour Sorption (DVS) analysis is a technique specifically designed to provide information related to material response to changes in relative humidity and T°C. A Q5000 SA DVS equipment from TA Instruments was used for running the experiment.
The variation of the weight is controlled and the following percentage is calculated: Δ %weight = (Pn-P1)/P1 x 100 [formula] wherein: P1 is the initial weight , Pn is the weight measured for the sample.

The conditions of data set [3]: pH 7.4; free form; cited from earlier work.

For the compound `CC(C)C[C@H](CN)CC(=O)O.Cl.O=C(O)[C@@H]1CCCN1` [Example 6, (S)-Pregabalin - L-proline - HCl (1:1:1)], the Hygroscopicity entry in data set [1] is reported as “hygroscopic tendencies, particularly at humid conditions, to such an extent that it liquefied”. In data set [2], the “hygroscopicity (classification from DVS)” value is recorded as “deliquescent”, the “Δ %weight 24 h” value was determined as 95% and the “Hygroscopicity (85-95%)” value was 95%. For the same compound, in data set [2] (listed as sample 1), the “hygroscopicity (classification from DVS)” value is “sufficient water was absorbed to form a liquid”.
Turning to `CC(C)C[C@H](CN)CC(=O)O.CC(C)C[C@H](CN)CC(=O)O.O.O=C(O)/C=C\C(=O)O.O=C(O)/C=C\C(=O)O` [Example 7, (S)-Pregabalin - maleic acid - H2O (1:1:0.5)], in data set [2], the “hygroscopicity (classification from DVS)” value was “very hygroscopic”, the “Δ %weight 24 h” value is on record as 37,9% and the “Hygroscopicity (85-95%)” value is given as 37.9%.
For the compound `CC(C)C[C@H](CN)CC(=O)O.CCCCCCCCCCCC(=O)O` [Example 11, (S)-Pregabalin - lauric acid (1:1)], in data set [1], the Hygroscopicity result is “non-hygroscopic” and the “Hygroscopicity (85-95%)” value is recorded as “Non-hygroscopic”. Moreover, in data set [2], the “hygroscopicity (classification from DVS)” value was “not hygroscopic” and the “Δ %weight 24 h” value is 0%.
Regarding `CC(C)C[C@H](CN)CC(=O)O` [PGB free base, (S)-3-(aminomethyl)-5-methylhexanoic acid, reference compound], the “Hygroscopicity (85-95%)” value in data set [1] is on record as “Non-hygroscopic”. Besides, the solubility in water in data set [3] is 32 mg/mL (≈ 201 mM).
